Values of other authors, collected in US9402854B2, “Pharmaceutical composition” (Cipla Limited, priority 2012, dated 2016).

Conditions: versus racemic formoterol (contains both (S,S) and (R,R) enantiomers)

For COc1ccc(C[C@@H](C)NC[C@H](O)c2ccc(O)c(NC=O)c2)cc1 [Arformoterol], the “potency relative to racemic formoterol” value is listed as “two-fold greater potency”.
